Measurements published in US20230201217A1 (priority 2019, published 2023).

Experiments:
[1] = target: T1, rat α3β4 nicotinic acetylcholine receptor (nAChR) (Rattus norvegicus, UniProt P04757+P12392); test: cell-based
T1 construct: expressed in transfected cells; host or cells: HEK 293 (ATCC CRL1573), transient, Lipofectamine 2000

[2] = Toxicokinetics, 14-day oral gavage study in CD-1 mice; assay type: in vivo, mouse; settings: after 14 days of 25 mg/kg 18-MC HCl
Experimental: The relative metabolite concentrations were determined from plasma samples obtained on the last day of dosing in the 25 mg/kg/day group of animals using a UPLC/MS/MS method. Major metabolites were identified as M2 and M4, followed by M8 and M9. The parent 18-MC exposure was less than 1% of the total drug related material. No significant sex differences were observed.
All test article-treated animals underwent up-titration of dosage levels prior to reaching the maximum daily dose, which was administered for 14 consecutive days. […] The dose volume was 10 mL/kg for all groups. Groups 1 and 4 each consisted of 25 animals/sex and Groups 2-3 each consisted of 20 animals for each sex. Following 14 days of dose administration, 15 mice/sex/toxicology group were euthanized; the remaining 5, (10 for the control and high dose group) mice/sex/toxicology group were euthanized following a 14-day nondosing (recovery) period. Following the final blood collection (study day 13), all toxicokinetic animals (from a satellite group of 18 animals/sex/dose level) were euthanized.

cynomolgus monkeys = test: 14-day nasogastric gavage GLP toxicity study in cynomolgus monkeys; assay type: in vivo, cynomolgus monkey; settings: 14 days
Description: Assessments of neurobehavioral effects and general toxicity were based on mortality, functional observational battery (FOB) evaluations, clinical observations, body weight, and body temperature; ophthalmoscopic, electrocardiographic examinations; and anatomic and clinical pathology. The anatomical pathology evaluations included histopathology of a full list of tissues from all animals and a comprehensive evaluation of the central nervous system (including selected peripheral nerves) utilizing whole body perfusion and special stains. Bone marrow smears from all animals were evaluated microscopically. Complete differentials and myeloid-erythroid (ME) ratios were performed. Toxicokinetic assessment was conducted for the test article and metabolites.

[3] = test system: polychromatic erythrocytes in mouse bone marrow; test: Mouse bone marrow in vivo micronucleus assay; settings: GLP, 50, 75, 120 mg/kg/day for 3 days
Experimental: Treatment resulted and clinical signs of lethargy and piloerection at doses of 200-400 mg/kg and in mortality of male and female ICR mice at doses of 300 and 400 mg/kg. The highest non-lethal dose was 250 mg/kg.
These doses were based upon prior toxicology data indicating higher doses were associated with mortality in this species. […] A positive control group received a single oral dose of 60 mg/kg cyclophosphamide on Day 2, the day prior to the scheduled euthanasia. Each group consisted of 6 males. Males only were used as no significant differences in response related to gender were expected based upon prior toxicology and toxicokinetic data. All animals were euthanized on Day 3, the day following the final dose and discarded following bone marrow collection.
All animals were observed twice daily for mortality and moribundity. Bone marrow collection for micronucleus evaluation was performed for 5 of the 6 animals in each group at the scheduled euthanasia (Day 3). All animals were discarded without necropsy. Bone marrow smears were prepared, and the coded slides were counted for polychromatic, normochromatic, and micronucleated polychromatic erythrocytes following the final bone marrow sample collection on Day 3.

CYP2C9 = CYP2C9 (Homo sapiens, UniProt P11712); settings: recombinant enzyme
CYP2C9, sequence (P11712 whole entry): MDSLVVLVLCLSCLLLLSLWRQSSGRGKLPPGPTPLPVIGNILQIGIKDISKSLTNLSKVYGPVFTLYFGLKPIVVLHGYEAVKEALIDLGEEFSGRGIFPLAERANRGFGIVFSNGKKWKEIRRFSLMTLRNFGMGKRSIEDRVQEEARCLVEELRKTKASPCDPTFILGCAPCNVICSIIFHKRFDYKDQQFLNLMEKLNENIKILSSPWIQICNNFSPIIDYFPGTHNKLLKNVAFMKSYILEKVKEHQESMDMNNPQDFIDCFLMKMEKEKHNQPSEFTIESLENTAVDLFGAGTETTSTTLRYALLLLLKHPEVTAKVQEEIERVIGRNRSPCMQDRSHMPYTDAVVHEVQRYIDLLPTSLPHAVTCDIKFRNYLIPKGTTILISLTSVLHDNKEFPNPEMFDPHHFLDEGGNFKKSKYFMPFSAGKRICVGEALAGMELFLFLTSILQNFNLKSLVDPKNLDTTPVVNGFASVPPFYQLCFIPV
Experimental: Control incubations were performed for each assay with appropriate positive inhibitory controls.

[4] = test system: animal substance use models; settings: i.p.; cited from earlier work

T1 sequence (P04757 26-499): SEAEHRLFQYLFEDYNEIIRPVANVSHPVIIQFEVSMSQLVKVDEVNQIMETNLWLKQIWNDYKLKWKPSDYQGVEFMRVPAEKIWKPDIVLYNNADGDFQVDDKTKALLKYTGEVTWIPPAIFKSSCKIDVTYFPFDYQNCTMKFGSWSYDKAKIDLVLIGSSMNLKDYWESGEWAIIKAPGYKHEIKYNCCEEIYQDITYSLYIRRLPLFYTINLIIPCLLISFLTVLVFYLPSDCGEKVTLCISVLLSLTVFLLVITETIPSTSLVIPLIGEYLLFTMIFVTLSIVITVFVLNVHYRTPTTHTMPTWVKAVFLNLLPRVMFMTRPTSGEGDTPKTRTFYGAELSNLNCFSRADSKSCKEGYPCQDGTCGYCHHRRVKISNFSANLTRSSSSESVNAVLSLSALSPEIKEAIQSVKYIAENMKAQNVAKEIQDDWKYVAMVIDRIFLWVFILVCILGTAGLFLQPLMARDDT
T1 sequence (P12392 21-495): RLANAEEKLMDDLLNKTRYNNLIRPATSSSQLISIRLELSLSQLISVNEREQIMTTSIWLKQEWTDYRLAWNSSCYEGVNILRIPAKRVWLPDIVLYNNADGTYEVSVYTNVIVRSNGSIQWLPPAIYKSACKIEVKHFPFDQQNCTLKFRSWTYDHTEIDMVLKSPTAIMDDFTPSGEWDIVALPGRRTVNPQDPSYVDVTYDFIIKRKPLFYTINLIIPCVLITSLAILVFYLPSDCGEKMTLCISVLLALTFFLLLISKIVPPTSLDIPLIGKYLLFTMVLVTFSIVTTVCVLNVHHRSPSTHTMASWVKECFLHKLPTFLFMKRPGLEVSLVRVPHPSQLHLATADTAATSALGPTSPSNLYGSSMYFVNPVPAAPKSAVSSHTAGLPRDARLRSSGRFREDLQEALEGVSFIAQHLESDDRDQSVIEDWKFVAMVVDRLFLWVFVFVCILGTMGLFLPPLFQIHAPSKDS

COCC[C@H]1CC2CN3CCc4c([nH]c5ccccc45)[C@](C(=O)OC)(C2)[C@H]13 [18-MC, 18-methoxycoronaridine]
Ipeak [1]: 50 ± 4% of ACh | Iss [1]: 34 ± 5% of peak | τdecay [1]: 298 ± 23 ms | IC50 ([1]; read-out: IC50, inhibition of ACh-evoked currents): 800 nM | AUC [2]: 251 ng·h/mL | Cmax [2]: 105 ng/mL | NOAEL (cynomolgus monkeys): 50 mg/kg/day | bone marrow cytotoxicity and clastogenic activity [3]: negative response | IC50 (CYP2C9): 4.1 µM | lowest dosage that significantly reduces drug self-administration [4]: ≥ 10 mg/kg
